Measured values: ChEMBL document CHEMBL5653615 (J Biol Chem, 2013)

Columns and labels:
[1] = target: Calcium/calmodulin-dependent protein kinase type II subunit delta (Homo sapiens) (UniProt Q13557); assay: Inhibition of human CAMK2d at 500 nM by HotSpot assay relative to control
[2] = target: Cyclin-dependent kinase 1/cyclin B1 (Homo sapiens) (UniProt P06493+P14635); assay: Inhibition of human CDK1/cyclin B at 500 nM by HotSpot assay relative to control; format: protein-complex assay
[3] = target: Casein kinase I isoform alpha (Homo sapiens) (UniProt P48729); assay: Inhibition of human CK1a1 at 500 nM by HotSpot assay relative to control
[4] = target: Casein kinase II subunit alpha' (Homo sapiens) (UniProt P19784); assay: Inhibition of human CK2a2 at 500 nM by HotSpot assay relative to control
[5] = target: Dual specificity protein kinase CLK1 (Homo sapiens) (UniProt P49759); assay: Inhibition of human CLK1 at 500 nM by HotSpot assay relative to control
[6] = target: Receptor tyrosine-protein kinase erbB-2 (Homo sapiens) (UniProt P04626); assay: Inhibition of human ERBB2 at 500 nM by HotSpot assay relative to control
[7] = target: Focal adhesion kinase 1 (Homo sapiens) (UniProt Q05397); assay: Inhibition of human FAK at 500 nM by HotSpot assay relative to control
[8] = target: Mitogen-activated protein kinase kinase kinase kinase 4 (Homo sapiens) (UniProt O95819); assay: Inhibition of human HGK at 500 nM by HotSpot assay relative to control
[9] = target: LIM domain kinase 1 (Homo sapiens) (UniProt P53667); assay: Inhibition of human LIMK1 at 500 nM by HotSpot assay relative to control
[10] = target: Serine/threonine-protein kinase MRCK beta (Homo sapiens) (UniProt Q9Y5S2); assay: Inhibition of human CDC42BPB at 500 nM by HotSpot assay relative to control
[11] = target: SRSF protein kinase 3 (Homo sapiens) (UniProt Q9UPE1); assay: Inhibition of human STK23 at 500 nM by HotSpot assay relative to control
[12] = target: Serine/threonine-protein kinase PAK 3 (Homo sapiens) (UniProt O75914); assay: Inhibition of human PAK3 at 500 nM by HotSpot assay relative to control
[13] = target: T1, Serine/threonine-protein kinase D3 (Homo sapiens) (UniProt O94806); assay: Inhibition of human PRKD3 at 500 nM by HotSpot assay relative to control
T1 sequence (whole entry): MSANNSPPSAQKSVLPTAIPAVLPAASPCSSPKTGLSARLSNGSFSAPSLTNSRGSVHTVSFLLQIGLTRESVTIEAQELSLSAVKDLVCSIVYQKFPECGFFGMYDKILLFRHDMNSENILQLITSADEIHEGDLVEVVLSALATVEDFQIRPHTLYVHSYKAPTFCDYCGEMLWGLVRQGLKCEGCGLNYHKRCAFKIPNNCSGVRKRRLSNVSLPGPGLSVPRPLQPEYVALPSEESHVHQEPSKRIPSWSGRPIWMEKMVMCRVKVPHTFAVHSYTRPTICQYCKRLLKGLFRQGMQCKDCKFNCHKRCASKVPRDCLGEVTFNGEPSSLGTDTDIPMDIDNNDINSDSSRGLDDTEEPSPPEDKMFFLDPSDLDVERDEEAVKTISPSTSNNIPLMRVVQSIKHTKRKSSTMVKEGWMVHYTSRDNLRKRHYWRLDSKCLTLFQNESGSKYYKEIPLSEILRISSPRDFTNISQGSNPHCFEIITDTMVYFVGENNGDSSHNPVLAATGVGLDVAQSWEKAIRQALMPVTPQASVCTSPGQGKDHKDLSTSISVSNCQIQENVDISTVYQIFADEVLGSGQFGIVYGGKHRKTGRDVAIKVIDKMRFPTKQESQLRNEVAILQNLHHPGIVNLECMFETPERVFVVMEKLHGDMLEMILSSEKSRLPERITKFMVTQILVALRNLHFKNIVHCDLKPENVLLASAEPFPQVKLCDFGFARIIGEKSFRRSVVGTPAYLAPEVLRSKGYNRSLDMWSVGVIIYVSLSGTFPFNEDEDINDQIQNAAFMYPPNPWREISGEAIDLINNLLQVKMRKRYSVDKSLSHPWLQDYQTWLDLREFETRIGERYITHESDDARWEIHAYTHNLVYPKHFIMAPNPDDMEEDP

[14] = target: T2, Tyrosine-protein kinase TXK (Homo sapiens) (UniProt P42681); assay: Inhibition of human TXK at 500 nM by HotSpot assay relative to control
T2 sequence (whole entry): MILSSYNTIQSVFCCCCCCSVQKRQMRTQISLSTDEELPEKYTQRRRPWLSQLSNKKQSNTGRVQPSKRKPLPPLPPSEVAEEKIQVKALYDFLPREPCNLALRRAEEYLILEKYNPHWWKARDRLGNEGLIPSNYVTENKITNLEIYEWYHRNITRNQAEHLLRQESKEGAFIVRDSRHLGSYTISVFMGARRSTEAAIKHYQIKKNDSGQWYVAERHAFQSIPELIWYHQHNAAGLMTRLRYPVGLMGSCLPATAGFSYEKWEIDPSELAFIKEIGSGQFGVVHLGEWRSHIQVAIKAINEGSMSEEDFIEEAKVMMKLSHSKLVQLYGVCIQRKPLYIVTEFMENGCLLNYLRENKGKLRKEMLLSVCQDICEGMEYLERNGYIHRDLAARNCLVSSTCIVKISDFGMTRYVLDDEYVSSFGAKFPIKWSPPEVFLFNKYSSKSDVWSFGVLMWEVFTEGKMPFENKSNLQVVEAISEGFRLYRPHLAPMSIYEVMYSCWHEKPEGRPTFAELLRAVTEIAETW

Chain of Cyclin-dependent kinase 1/cyclin B1 (Homo sapiens) (P06493 whole entry, looked up, canonical isoform): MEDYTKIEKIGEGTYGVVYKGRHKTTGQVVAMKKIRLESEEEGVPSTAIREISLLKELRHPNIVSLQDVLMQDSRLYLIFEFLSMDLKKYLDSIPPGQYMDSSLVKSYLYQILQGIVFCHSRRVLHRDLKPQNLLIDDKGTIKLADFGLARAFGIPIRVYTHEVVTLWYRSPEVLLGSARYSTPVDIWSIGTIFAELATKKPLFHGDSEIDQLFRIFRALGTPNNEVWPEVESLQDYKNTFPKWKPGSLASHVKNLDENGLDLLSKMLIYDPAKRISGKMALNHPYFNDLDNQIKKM
Chain of Cyclin-dependent kinase 1/cyclin B1 (Homo sapiens) (P14635 whole entry, looked up, canonical isoform): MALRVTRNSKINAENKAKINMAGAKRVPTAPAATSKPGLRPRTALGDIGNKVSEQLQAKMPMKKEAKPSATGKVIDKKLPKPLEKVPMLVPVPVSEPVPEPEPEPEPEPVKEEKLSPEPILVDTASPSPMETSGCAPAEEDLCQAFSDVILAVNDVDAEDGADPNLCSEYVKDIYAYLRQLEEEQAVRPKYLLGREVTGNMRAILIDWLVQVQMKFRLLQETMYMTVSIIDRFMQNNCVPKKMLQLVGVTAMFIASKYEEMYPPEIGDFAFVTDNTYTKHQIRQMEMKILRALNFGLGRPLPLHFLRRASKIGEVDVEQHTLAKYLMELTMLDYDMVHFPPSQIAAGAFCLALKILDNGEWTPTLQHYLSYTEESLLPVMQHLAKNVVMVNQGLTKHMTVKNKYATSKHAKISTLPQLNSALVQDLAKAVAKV
Chain of Serine/threonine-protein kinase MRCK beta (Homo sapiens) (Q9Y5S2 whole entry): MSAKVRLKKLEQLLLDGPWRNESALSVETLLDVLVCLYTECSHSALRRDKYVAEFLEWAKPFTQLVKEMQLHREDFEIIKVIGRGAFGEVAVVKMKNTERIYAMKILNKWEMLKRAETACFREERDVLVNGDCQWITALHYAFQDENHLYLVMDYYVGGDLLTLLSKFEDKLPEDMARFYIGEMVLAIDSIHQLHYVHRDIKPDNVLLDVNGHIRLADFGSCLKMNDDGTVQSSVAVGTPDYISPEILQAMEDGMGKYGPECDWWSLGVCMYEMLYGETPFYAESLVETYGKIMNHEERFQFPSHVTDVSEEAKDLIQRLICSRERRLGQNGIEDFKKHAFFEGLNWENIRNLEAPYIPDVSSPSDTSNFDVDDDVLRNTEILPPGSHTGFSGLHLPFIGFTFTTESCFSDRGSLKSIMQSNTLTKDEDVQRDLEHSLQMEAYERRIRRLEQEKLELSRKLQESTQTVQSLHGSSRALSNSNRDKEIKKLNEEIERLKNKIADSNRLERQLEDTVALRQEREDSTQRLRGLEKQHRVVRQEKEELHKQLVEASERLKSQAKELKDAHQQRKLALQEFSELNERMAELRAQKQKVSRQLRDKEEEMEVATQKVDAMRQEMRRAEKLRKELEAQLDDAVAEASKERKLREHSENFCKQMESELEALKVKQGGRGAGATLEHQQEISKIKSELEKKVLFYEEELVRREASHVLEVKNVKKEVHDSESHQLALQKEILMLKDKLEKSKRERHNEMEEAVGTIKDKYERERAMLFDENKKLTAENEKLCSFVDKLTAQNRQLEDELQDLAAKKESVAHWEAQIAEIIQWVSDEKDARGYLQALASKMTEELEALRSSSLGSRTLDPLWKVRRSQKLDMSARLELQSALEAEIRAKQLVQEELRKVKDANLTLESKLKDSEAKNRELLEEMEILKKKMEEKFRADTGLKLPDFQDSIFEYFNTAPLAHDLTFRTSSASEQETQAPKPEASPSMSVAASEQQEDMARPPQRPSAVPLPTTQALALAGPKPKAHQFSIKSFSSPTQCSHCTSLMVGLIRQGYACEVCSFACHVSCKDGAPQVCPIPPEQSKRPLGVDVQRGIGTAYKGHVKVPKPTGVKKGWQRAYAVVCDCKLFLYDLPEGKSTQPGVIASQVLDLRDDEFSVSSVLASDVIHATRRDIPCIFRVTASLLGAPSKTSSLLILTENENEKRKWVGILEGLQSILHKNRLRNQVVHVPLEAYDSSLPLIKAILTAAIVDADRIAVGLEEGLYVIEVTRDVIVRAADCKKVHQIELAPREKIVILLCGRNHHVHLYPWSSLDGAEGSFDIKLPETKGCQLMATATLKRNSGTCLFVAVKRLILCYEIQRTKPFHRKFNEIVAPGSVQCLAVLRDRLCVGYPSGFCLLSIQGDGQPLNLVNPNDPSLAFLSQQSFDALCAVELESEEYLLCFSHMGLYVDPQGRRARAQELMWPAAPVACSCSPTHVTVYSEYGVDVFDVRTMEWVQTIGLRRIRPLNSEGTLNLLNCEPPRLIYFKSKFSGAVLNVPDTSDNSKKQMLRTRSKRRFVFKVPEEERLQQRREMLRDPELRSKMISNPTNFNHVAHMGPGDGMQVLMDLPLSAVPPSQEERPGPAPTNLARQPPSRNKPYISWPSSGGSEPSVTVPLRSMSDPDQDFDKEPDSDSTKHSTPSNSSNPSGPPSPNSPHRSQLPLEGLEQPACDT
Chain of Serine/threonine-protein kinase PAK 3 (Homo sapiens) (O75914 whole entry, looked up): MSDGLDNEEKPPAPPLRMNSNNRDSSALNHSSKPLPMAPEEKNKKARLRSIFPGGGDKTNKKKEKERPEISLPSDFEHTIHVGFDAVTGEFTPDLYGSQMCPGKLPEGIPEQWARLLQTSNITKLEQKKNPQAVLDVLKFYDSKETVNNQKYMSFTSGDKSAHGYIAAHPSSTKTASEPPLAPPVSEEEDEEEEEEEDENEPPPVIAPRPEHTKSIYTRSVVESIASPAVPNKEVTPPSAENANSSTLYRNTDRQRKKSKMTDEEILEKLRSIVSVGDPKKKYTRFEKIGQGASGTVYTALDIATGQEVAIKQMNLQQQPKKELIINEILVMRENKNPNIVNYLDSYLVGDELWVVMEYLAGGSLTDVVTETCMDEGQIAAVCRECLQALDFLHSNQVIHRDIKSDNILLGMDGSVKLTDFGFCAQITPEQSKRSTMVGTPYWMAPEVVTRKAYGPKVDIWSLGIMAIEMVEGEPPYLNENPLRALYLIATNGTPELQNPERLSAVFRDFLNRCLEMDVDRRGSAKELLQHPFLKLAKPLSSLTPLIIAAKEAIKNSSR
Chain of LIM domain kinase 1 (Homo sapiens) (P53667 whole entry, looked up, the tested form may be a part): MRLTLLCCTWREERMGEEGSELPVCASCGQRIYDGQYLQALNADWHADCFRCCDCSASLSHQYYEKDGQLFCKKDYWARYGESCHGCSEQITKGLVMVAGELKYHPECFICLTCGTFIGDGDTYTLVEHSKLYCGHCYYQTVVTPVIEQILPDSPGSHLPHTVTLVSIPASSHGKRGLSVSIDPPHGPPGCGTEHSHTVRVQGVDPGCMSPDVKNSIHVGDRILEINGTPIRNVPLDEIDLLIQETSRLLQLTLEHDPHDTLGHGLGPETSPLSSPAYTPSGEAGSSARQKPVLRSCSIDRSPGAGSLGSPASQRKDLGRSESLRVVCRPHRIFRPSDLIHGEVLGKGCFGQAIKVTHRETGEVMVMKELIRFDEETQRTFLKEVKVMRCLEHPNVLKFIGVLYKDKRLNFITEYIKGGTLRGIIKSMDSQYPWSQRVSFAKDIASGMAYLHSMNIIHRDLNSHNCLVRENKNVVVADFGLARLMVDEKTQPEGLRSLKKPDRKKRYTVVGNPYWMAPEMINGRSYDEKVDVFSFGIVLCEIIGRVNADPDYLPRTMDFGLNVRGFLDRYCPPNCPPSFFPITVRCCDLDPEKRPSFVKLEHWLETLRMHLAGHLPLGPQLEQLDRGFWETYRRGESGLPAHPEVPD
Chain of Receptor tyrosine-protein kinase erbB-2 (Homo sapiens) (P04626 whole entry): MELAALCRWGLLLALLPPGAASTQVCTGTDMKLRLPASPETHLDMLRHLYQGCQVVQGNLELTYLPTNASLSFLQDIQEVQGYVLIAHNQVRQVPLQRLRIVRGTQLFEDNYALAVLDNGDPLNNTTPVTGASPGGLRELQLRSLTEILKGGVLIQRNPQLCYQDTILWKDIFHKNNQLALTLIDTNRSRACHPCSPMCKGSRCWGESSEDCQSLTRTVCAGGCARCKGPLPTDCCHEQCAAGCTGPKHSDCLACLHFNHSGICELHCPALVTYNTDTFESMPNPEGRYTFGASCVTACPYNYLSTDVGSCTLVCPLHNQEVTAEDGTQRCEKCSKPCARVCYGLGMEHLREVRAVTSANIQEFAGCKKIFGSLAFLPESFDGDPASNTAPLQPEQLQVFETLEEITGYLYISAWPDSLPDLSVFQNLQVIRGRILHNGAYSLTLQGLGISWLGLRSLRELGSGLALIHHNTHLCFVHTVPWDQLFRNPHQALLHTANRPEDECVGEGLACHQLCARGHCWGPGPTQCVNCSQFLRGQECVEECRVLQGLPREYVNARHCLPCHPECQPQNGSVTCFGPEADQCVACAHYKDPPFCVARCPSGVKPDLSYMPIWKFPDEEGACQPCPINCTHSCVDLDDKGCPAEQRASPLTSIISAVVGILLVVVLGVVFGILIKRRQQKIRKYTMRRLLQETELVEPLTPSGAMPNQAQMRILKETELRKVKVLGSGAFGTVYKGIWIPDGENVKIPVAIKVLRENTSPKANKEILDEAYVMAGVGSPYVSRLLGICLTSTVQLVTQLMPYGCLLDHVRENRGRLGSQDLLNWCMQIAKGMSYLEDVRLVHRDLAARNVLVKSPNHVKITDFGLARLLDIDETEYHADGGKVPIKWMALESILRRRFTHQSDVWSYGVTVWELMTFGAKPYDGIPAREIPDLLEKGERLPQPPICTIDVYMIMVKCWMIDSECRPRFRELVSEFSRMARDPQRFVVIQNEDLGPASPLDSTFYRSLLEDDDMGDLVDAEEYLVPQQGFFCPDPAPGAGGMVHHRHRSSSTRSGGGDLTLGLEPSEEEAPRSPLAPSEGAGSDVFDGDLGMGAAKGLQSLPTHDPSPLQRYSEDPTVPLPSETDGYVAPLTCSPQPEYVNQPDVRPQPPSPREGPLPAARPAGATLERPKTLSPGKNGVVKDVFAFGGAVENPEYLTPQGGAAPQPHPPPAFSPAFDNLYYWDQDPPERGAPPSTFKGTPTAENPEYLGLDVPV

Row | Structure (SMILES) | inhibition [1] [%] | inhibition [2] [%] | inhibition [3] [%] | inhibition [4] [%] | inhibition [5] [%] | inhibition [6] [%] | inhibition [7] [%] | inhibition [8] [%] | inhibition [9] [%] | inhibition [10] [%] | inhibition [11] [%] | inhibition [12] [%] | inhibition [13] [%] | inhibition [14] [%]
1 | Oc1n[nH]c2nnc(-c3c(-c4ccccc4)nn4ccccc34)cc12 | 2.55 | 9.98 | -6.61 | 6.97 | -5.95 | -4.85 | -3.2 | 0.95 | -1.82 | 4.33 | 0.76 | 0.99 | 1.12 | 2.55
2 | Nc1n[nH]c2nnc(-c3c(-c4ccccc4)nn4ccccc34)cc12 | 3.52 | 9.79 | -0.27 | 6.59 | -8.27 | -4.95 | 0.84 | 38 | 1.81 | 6.62 | 11.2 | -0.04 | 41.1 | 11.2
